Results published in patent US10710978B2, “STK4 inhibitors for treatment of hematologic malignancies” (Dana-Farber Cancer Institute, Inc., priority 2015, dated 2020).
Read-outs that look alike come from different tables or passages of the source.

Key:
Assay in all cases: KiNativ assay
Format in all cases: binding
ABL, ARG = conditions: H929 live cell; for % inhibition: 10 μM, range class
Method: (§1) Biochemical IC50s of the compounds of the present disclosure against various kinases were measured in a KiNativ assay. Compounds were screened in duplicate at 10 μM in H929 live cell. IC50 was measured via Mass spectroscopy (MS).

AurA = AurA (Homo sapiens (Human), UniProt O14965); conditions: H929 live cell
Method: as §1

BARK1 = BARK1 (Homo sapiens (Human), UniProt P25098); conditions: H929 live cell
BARK1, sequence (P25098 whole entry): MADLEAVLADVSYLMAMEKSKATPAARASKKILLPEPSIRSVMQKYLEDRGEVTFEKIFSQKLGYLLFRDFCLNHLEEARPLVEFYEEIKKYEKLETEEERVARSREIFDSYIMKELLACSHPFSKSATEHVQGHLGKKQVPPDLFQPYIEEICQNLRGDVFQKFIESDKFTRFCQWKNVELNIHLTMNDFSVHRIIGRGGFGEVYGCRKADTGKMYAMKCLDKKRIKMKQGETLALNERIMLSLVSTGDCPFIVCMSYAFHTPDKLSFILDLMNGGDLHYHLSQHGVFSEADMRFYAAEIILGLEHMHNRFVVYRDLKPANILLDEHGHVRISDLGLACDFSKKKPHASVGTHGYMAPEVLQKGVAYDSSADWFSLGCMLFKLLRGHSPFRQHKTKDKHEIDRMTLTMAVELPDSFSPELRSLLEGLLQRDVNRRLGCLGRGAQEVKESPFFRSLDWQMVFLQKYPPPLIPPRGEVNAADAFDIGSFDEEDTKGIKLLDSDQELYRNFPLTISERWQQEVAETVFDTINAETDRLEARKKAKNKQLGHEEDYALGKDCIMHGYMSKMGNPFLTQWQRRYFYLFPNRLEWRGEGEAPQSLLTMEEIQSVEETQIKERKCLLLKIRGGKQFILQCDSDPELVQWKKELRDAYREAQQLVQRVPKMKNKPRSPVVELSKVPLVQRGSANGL
Method: as §1

CDC2 = CDC2 (Homo sapiens (Human), UniProt P06493); conditions: H929 live cell
Method: as §1

CHK1 = CHK1 (Homo sapiens (Human), UniProt O14757); conditions: H929 live cell
Method: as §1

CaMK1d = CaMK1d (Homo sapiens (Human), UniProt Q8IU85); conditions: H929 live cell
Method: as §1

EphB2 = EphB2 (Homo sapiens (Human), UniProt P29323); conditions: H929 live cell
Method: as §1

Erk1 = Erk1 (Homo sapiens (Human), UniProt P27361); conditions: H929 live cell
Method: as §1

FRAP = FRAP (Homo sapiens (Human), UniProt P42345); conditions: H929 live cell
Method: as §1

GCK = GCK (Homo sapiens (Human), UniProt Q12851); conditions: H929 live cell
GCK, sequence (Q12851 whole entry): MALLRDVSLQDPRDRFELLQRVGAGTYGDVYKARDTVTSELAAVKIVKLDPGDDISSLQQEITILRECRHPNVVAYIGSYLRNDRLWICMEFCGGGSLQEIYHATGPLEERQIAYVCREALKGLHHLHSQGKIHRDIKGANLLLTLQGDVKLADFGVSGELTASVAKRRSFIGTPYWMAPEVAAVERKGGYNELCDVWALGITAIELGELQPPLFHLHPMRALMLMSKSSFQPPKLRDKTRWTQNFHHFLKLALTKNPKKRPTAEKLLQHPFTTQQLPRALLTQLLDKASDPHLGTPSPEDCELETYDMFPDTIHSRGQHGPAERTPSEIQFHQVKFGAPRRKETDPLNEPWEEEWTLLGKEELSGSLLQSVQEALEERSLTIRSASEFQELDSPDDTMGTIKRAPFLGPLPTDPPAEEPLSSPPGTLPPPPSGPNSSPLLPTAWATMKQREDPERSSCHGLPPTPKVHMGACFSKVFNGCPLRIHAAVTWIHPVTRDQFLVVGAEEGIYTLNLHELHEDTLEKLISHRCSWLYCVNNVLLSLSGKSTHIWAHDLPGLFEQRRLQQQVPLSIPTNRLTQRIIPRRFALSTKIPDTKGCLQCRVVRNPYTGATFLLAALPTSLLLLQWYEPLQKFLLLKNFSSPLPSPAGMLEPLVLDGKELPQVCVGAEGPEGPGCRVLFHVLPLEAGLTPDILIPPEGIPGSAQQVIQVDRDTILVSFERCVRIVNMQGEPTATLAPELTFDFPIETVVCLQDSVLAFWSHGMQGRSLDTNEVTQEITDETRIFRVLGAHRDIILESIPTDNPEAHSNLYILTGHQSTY
Method: as §1

IKKb = IKKb (Homo sapiens (Human), UniProt O14920); conditions: H929 live cell
IKKb, sequence (O14920 whole entry): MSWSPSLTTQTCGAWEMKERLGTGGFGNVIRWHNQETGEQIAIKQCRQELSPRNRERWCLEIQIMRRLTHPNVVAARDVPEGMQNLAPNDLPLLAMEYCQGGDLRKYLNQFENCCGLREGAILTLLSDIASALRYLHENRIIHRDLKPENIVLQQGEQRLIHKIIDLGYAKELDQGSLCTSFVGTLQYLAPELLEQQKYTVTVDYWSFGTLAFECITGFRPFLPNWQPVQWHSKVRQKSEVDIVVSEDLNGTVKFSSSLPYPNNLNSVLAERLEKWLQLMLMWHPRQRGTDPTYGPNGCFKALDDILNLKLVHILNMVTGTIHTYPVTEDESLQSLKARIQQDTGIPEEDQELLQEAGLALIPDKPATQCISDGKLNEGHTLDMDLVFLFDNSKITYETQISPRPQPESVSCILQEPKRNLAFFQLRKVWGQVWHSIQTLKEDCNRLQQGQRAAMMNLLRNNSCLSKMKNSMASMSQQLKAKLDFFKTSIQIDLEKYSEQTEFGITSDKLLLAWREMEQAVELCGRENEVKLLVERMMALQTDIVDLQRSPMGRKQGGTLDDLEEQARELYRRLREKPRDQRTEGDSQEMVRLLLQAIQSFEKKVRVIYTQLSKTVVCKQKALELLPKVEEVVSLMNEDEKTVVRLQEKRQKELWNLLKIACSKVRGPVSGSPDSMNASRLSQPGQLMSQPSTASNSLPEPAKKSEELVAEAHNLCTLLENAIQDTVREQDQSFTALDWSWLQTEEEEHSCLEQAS
Method: as §1

IKKe, TBK1 = conditions: H929 live cell; for % inhibition: 10 μM, range class
Method: as §1

JNK1, JNK2, JNK3 = conditions: H929 live cell; for % inhibition: 10 μM, range class
Method: as §1

KSR1, KSR2 = conditions: H929 live cell; for % inhibition: 10 μM, range class
Method: as §1

LYN = LYN (Homo sapiens (Human), UniProt P07948); conditions: H929 live cell
Method: as §1

MAP2K1 = MAP2K1 (Homo sapiens (Human), UniProt Q02750); conditions: H929 live cell
MAP2K1, sequence (Q02750 whole entry): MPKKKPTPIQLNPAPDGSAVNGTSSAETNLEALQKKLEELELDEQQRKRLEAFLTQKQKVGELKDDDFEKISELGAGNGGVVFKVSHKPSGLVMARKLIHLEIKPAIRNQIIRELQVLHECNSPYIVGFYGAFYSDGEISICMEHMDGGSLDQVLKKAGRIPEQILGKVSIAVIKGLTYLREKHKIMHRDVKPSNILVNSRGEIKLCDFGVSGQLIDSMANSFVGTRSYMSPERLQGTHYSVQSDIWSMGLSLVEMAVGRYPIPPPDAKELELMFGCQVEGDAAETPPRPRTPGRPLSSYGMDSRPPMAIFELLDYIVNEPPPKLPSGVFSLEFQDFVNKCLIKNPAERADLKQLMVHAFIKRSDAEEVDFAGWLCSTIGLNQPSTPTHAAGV
Method: as §1

MAP2K4 = MAP2K4 (Homo sapiens (Human), UniProt P45985); conditions: H929 live cell
Method: as §1

MAP3K2 = MAP3K2 (Homo sapiens (Human), UniProt Q9Y2U5); conditions: H929 live cell
Method: as §1

MAPKAPK2, MAPKAPK3 = conditions: H929 live cell; for % inhibition: 10 μM, range class
Method: as §1

MPSK1 = MPSK1 (Homo sapiens (Human), UniProt O75716); conditions: H929 live cell
Method: as §1

NEK6, NEK7 = conditions: H929 live cell; for % inhibition: 10 μM, range class
Method: as §1

NEK8 = NEK8 (Homo sapiens (Human), UniProt Q86SG6); conditions: H929 live cell
Method: as §1

PIK3CG = PIK3CG (Homo sapiens (Human), UniProt P48736); conditions: H929 live cell
PIK3CG, sequence (P48736 whole entry): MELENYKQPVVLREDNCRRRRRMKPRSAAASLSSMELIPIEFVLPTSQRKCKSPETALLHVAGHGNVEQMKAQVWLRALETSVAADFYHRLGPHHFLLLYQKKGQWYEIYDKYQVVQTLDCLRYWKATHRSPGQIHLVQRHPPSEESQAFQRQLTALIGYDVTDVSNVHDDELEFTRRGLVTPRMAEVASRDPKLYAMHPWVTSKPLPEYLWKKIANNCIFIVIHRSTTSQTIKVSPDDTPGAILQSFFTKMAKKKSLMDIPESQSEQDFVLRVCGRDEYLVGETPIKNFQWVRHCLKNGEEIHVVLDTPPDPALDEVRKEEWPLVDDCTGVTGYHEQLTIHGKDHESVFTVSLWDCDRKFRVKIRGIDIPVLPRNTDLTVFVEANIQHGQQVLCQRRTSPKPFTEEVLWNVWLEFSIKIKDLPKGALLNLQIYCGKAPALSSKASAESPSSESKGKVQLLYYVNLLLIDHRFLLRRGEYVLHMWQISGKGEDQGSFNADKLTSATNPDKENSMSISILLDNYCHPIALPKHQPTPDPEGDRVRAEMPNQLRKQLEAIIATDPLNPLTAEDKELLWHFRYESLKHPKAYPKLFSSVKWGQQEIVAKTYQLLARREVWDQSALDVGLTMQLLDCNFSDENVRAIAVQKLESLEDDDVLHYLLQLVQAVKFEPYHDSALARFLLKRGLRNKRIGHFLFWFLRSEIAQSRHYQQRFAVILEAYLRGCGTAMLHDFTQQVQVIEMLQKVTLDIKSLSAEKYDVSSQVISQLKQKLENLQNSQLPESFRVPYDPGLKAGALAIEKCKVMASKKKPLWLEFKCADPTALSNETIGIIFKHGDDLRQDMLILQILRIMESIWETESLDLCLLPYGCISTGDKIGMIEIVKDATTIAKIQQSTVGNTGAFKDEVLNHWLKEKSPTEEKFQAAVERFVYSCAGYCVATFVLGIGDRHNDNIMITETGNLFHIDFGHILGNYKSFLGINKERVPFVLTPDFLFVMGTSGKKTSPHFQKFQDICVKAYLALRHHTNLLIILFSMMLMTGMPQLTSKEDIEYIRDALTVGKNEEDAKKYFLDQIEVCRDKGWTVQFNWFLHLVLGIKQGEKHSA
Method: as §1

PIP5K3 = PIP5K3 (Homo sapiens (Human), UniProt Q9Y2I7); conditions: H929 live cell
Method: as §1

PRP4 = PRP4 (Homo sapiens (Human), UniProt Q13523); conditions: H929 live cell
Method: as §1

RSKL1 = RSKL1 (Homo sapiens (Human), UniProt Q96S38); conditions: H929 live cell
RSKL1, sequence (Q96S38 whole entry): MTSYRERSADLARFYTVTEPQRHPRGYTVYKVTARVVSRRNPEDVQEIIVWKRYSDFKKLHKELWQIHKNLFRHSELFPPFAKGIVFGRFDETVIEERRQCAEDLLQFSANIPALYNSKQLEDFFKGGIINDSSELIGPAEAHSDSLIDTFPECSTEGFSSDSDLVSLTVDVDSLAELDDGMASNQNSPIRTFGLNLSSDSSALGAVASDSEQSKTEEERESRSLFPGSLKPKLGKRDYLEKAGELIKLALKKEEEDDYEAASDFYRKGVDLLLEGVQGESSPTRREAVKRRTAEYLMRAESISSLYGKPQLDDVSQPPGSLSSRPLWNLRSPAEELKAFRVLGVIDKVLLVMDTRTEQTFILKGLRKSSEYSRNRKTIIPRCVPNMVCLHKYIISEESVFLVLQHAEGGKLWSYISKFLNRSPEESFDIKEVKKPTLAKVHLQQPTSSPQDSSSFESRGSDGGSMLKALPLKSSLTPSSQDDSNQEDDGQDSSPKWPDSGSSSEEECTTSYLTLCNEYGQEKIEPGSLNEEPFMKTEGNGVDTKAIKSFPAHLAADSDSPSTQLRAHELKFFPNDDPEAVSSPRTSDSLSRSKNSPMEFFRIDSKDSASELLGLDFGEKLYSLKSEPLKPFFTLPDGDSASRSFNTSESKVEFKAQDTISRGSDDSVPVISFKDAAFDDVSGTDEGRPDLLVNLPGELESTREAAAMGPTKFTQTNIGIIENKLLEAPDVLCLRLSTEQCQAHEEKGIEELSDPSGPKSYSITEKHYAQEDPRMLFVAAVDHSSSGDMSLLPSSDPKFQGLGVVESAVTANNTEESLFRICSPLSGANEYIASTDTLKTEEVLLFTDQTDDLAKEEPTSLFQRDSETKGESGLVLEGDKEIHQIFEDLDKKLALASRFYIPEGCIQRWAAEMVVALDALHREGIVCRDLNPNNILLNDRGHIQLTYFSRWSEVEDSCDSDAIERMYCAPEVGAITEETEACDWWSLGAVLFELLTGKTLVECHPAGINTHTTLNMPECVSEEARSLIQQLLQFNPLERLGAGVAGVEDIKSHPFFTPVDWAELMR
Method: as §1

SRPK2 = SRPK2 (Homo sapiens (Human), UniProt P78362); conditions: H929 live cell
Method: as §1

TAO1, TAO3 = conditions: H929 live cell; for % inhibition: 10 μM, range class
Method: as §1

TAO2 = TAO2 (Homo sapiens (Human), UniProt Q9UL54); conditions: H929 live cell
Method: as §1

TLK2 = TLK2 (Homo sapiens (Human), UniProt Q86UE8); conditions: H929 live cell
Method: as §1

TYK2 domain2 = TYK2 domain2 (Homo sapiens (Human), UniProt P29597); conditions: H929 live cell
Method: as §1

ULK1 = ULK1 (Homo sapiens (Human), UniProt O75385); conditions: H929 live cell
Method: as §1

Wnk1, Wnk2, Wnk3 = conditions: H929 live cell; for % inhibition: 10 μM, range class
Method: as §1

p38a = p38a (Homo sapiens (Human), UniProt Q16539); conditions: H929 live cell, range class, read-out: % inhibition
In short: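 Each compound is applied at 10 μM to live H929 cells in duplicate. Kinase activity-site labelling is then analysed by KiNativ. IC50 is obtained by mass spectrometry.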

[1] = range class, read-out: % inhibition

Nc1ncc(-c2ccc(NS(=O)(=O)C3CC3)cc2F)cc1-c1ccc2c(c1)CCNC2=O [Compound I-51, N-(4-(6-amino-5-(1-oxo-1,2,3,4-tetrahydroisoquinolin-6-yl)pyridin-3-yl)-3-fluorophenyl) cyclopropanesulfonamide]
% inhibition (ABL, ARG): 0.0%
inhibition (10 μM) (ABL, ARG): −3.0%
inhibition (10 μM) (AurA): 43.2%
inhibition at 10 µM (AurA; [1]): 35 to 40%
inhibition at 10 µM (AurA; read-out: inhibition (10 μM)): 46.7%
inhibition at 10 µM (BARK1; [1]): 0%
inhibition at 10 µM (BARK1; read-out: inhibition (10 μM)): -5.1%
inhibition at 10 µM (CDC2; [1]): 0%
inhibition at 10 µM (CDC2; read-out: inhibition (10 μM)): 18.5%
inhibition at 10 µM (CHK1; [1]): 0%
inhibition at 10 µM (CHK1; read-out: inhibition (10 μM)): -20.1%
inhibition at 10 µM (CaMK1d; [1]): 0%
inhibition at 10 µM (CaMK1d; read-out: inhibition (10 μM)): -1.7%
inhibition at 10 µM (EphB2; [1]): 0%
inhibition at 10 µM (EphB2; read-out: inhibition (10 μM)): 8.8%
inhibition at 10 µM (Erk1; [1]): 0%
inhibition at 10 µM (Erk1; read-out: inhibition (10 μM)): 29.2%
inhibition at 10 µM (FRAP; [1]): 0%
inhibition at 10 µM (FRAP; read-out: inhibition (10 μM)): 25.1%
inhibition at 10 µM (GCK; [1]): > 90%
inhibition at 10 µM (GCK; read-out: inhibition (10 μM)): 93.9%
inhibition at 10 µM (IKKb; [1]): 0%
inhibition at 10 µM (IKKb; read-out: inhibition (10 μM)): -19.5%
% inhibition (IKKe, TBK1): 0.0%
inhibition (10 μM) (IKKe, TBK1): 26.7%
% inhibition (JNK1, JNK2, JNK3): 0.0%
inhibition (10 μM) (JNK1, JNK2, JNK3): 29.3%
% inhibition (KSR1, KSR2): 0.0%
inhibition (10 μM) (KSR1, KSR2): −5.2%
inhibition at 10 µM (LYN; [1]): 0%
inhibition at 10 µM (LYN; read-out: inhibition (10 μM)): -21.9%
inhibition at 10 µM (MAP2K1; [1]): 0%
inhibition at 10 µM (MAP2K1; read-out: inhibition (10 μM)): -26.2%
inhibition at 10 µM (MAP2K4; [1]): 35 to 40%
inhibition at 10 µM (MAP2K4; read-out: inhibition (10 μM)): 44.2%
inhibition at 10 µM (MAP3K2; [1]): 0%
inhibition at 10 µM (MAP3K2; read-out: inhibition (10 μM)): -11.2%
% inhibition (MAPKAPK2, MAPKAPK3): 0.0%
inhibition (10 μM) (MAPKAPK2, MAPKAPK3): −65.2%
inhibition at 10 µM (MPSK1; [1]): 35 to 40%
inhibition at 10 µM (MPSK1; read-out: inhibition (10 μM)): 43.9%
% inhibition (NEK6, NEK7): 0.0%
inhibition (10 μM) (NEK6, NEK7): −63.6%
inhibition at 10 µM (NEK8; [1]): 0%
inhibition at 10 µM (NEK8; read-out: inhibition (10 μM)): -8.1%
inhibition at 10 µM (PIK3CG; [1]): 0%
inhibition at 10 µM (PIK3CG; read-out: inhibition (10 μM)): -146%
inhibition at 10 µM (PIP5K3; [1]): 75 to 90%
inhibition at 10 µM (PIP5K3; read-out: inhibition (10 μM)): 84.7%
inhibition at 10 µM (PRP4; [1]): 0%
inhibition at 10 µM (PRP4; read-out: inhibition (10 μM)): 10.2%
inhibition at 10 µM (RSKL1; [1]): 0%
inhibition at 10 µM (RSKL1; read-out: inhibition (10 μM)): -22.1%
inhibition at 10 µM (SRPK2; [1]): 0%
inhibition at 10 µM (SRPK2; read-out: inhibition (10 μM)): -41%
% inhibition (TAO1, TAO3): 75-90%
inhibition (10 μM) (TAO1, TAO3): 80.4%
inhibition at 10 µM (TAO2; [1]): 35 to 40%
inhibition at 10 µM (TAO2; read-out: inhibition (10 μM)): 40.9%
inhibition at 10 µM (TLK2; [1]): 0%
inhibition at 10 µM (TLK2; read-out: inhibition (10 μM)): -20.1%
inhibition at 10 µM (TYK2 domain2; [1]): 0%
inhibition at 10 µM (TYK2 domain2; read-out: inhibition (10 μM)): -23.9%
inhibition at 10 µM (ULK1; [1]): 35 to 40%
inhibition at 10 µM (ULK1; read-out: inhibition (10 μM)): 40%
% inhibition (Wnk1, Wnk2, Wnk3): 0.0%
inhibition (10 μM) (Wnk1, Wnk2, Wnk3): 0.2%
inhibition at 10 µM (p38a): 0%

Nc1ncc(-c2ccc(NS(=O)(=O)C3CC3)cc2OC2CCCCC2)cc1-c1ccc2c(c1)CCNC2=O [Compound I-65, N-(4-(6-amino-5-(1-oxo-1,2,3,4-tetrahydroisoquinolin-6-yl)pyridin-3-yl)-3-(cyclohexyloxy)phenyl) cyclopropanesulfonamide]
% inhibition (ABL, ARG): 0.0%
inhibition (10 μM) (ABL, ARG): −2.8%
inhibition (10 μM) (AurA): 40.2%
inhibition at 10 µM (AurA; [1]): 35 to 40%
inhibition at 10 µM (AurA; read-out: inhibition (10 μM)): 45.4%
inhibition at 10 µM (BARK1; [1]): 0%
inhibition at 10 µM (BARK1; read-out: inhibition (10 μM)): 3.9%
inhibition at 10 µM (CDC2; [1]): 0%
inhibition at 10 µM (CDC2; read-out: inhibition (10 μM)): -0.5%
inhibition at 10 µM (CHK1; [1]): 0%
inhibition at 10 µM (CHK1; read-out: inhibition (10 μM)): -16%
inhibition at 10 µM (CaMK1d; [1]): 0%
inhibition at 10 µM (CaMK1d; read-out: inhibition (10 μM)): 0.4%
inhibition at 10 µM (EphB2; [1]): 0%
inhibition at 10 µM (EphB2; read-out: inhibition (10 μM)): 20.3%
inhibition at 10 µM (Erk1; [1]): 0%
inhibition at 10 µM (Erk1; read-out: inhibition (10 μM)): -30.7%
inhibition at 10 µM (FRAP; [1]): 35 to 40%
inhibition at 10 µM (FRAP; read-out: inhibition (10 μM)): 47.9%
inhibition at 10 µM (GCK; [1]): > 90%
inhibition at 10 µM (GCK; read-out: inhibition (10 μM)): 92.5%
inhibition at 10 µM (IKKb; [1]): 0%
inhibition at 10 µM (IKKb; read-out: inhibition (10 μM)): -36%
% inhibition (IKKe, TBK1): 75-90%
inhibition (10 μM) (IKKe, TBK1): 81.8%
% inhibition (JNK1, JNK2, JNK3): 0.0%
inhibition (10 μM) (JNK1, JNK2, JNK3): 6.4%
% inhibition (KSR1, KSR2): 0.0%
inhibition (10 μM) (KSR1, KSR2): −5.7%
inhibition at 10 µM (LYN; [1]): 0%
inhibition at 10 µM (LYN; read-out: inhibition (10 μM)): -1.3%
inhibition at 10 µM (MAP2K1; [1]): 0%
inhibition at 10 µM (MAP2K1; read-out: inhibition (10 μM)): 21.2%
inhibition at 10 µM (MAP2K4; [1]): 0%
inhibition at 10 µM (MAP2K4; read-out: inhibition (10 μM)): -15.3%
inhibition at 10 µM (MAP3K2; [1]): 0%
inhibition at 10 µM (MAP3K2; read-out: inhibition (10 μM)): -3.9%
% inhibition (MAPKAPK2, MAPKAPK3): 0.0%
inhibition (10 μM) (MAPKAPK2, MAPKAPK3): −52.2%
inhibition at 10 µM (MPSK1; [1]): 50 to 75%
inhibition at 10 µM (MPSK1; read-out: inhibition (10 μM)): 72.8%
% inhibition (NEK6, NEK7): 0.0%
inhibition (10 μM) (NEK6, NEK7): −78.6%
inhibition at 10 µM (NEK8; [1]): 0%
inhibition at 10 µM (NEK8; read-out: inhibition (10 μM)): -1.7%
inhibition at 10 µM (PIK3CG; [1]): 0%
inhibition at 10 µM (PIK3CG; read-out: inhibition (10 μM)): -64%
inhibition at 10 µM (PIP5K3; [1]): > 90%
inhibition at 10 µM (PIP5K3; read-out: inhibition (10 μM)): 91.7%
inhibition at 10 µM (PRP4; [1]): 0%
inhibition at 10 µM (PRP4; read-out: inhibition (10 μM)): -19.3%
inhibition at 10 µM (RSKL1; [1]): 0%
inhibition at 10 µM (RSKL1; read-out: inhibition (10 μM)): -10.6%
inhibition at 10 µM (SRPK2; [1]): 0%
inhibition at 10 µM (SRPK2; read-out: inhibition (10 μM)): -29.4%
% inhibition (TAO1, TAO3): 0.0%
inhibition (10 μM) (TAO1, TAO3): 14.4%
inhibition at 10 µM (TAO2; [1]): 0%
inhibition at 10 µM (TAO2; read-out: inhibition (10 μM)): 8.3%
inhibition at 10 µM (TLK2; [1]): 0%
inhibition at 10 µM (TLK2; read-out: inhibition (10 μM)): -3.5%
inhibition at 10 µM (TYK2 domain2; [1]): 0%
inhibition at 10 µM (TYK2 domain2; read-out: inhibition (10 μM)): -8.4%
inhibition at 10 µM (ULK1; [1]): 0%
inhibition at 10 µM (ULK1; read-out: inhibition (10 μM)): 22.2%
% inhibition (Wnk1, Wnk2, Wnk3): 0.0%
inhibition (10 μM) (Wnk1, Wnk2, Wnk3): −8.3%
inhibition at 10 µM (p38a): 0%
